Here are results for 24 compounds from patent publication US6255339A, “Tetrahydronaphthofuranone derivatives and process for producing the same” (Meiji Seika Kaisha, Ltd., priority 1996, dated 2001).

As usually defined, the pIC50 is −log10 of the IC50, conventionally taken in molar units.

pIC50: −log10 of the molar value.

One series addresses T1, progesterone receptor (Sus scrofa, UniProt D0EWS6).
T1 construct: from tissue; host or cells: hog uterus, cytosol (100,000×g supernatant)
T1 sequence (D0EWS6 1-934): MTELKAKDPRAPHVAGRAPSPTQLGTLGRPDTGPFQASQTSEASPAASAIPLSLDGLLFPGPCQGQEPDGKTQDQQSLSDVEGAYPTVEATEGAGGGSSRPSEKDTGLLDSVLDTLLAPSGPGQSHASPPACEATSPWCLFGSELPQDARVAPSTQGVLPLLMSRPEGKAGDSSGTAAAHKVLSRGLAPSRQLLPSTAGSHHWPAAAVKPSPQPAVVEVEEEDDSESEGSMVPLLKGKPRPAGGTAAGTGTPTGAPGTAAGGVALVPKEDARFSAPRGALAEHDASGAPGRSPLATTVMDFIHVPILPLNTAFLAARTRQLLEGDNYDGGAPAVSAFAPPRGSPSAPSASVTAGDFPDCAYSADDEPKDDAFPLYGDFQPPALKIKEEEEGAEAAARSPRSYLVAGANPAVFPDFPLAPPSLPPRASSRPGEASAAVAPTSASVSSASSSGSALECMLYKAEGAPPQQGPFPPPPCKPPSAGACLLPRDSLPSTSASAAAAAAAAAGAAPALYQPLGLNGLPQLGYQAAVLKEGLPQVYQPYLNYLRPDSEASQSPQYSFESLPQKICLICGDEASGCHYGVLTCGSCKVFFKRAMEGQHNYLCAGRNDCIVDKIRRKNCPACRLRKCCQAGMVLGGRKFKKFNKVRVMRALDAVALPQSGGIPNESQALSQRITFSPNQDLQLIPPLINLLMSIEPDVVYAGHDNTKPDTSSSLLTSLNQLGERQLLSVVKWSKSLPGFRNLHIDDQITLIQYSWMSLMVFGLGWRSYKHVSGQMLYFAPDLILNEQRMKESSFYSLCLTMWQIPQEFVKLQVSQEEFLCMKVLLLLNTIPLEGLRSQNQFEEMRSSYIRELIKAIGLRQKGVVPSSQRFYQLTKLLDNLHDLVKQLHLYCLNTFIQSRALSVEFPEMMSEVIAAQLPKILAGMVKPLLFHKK
As to the kind of experiment: progesterone receptor binding inhibition ([^3 H]-progesterone, cytosol from uteri of hogs). To be noted: [^3 H]-progesterone ligand, hog uterus cytosol, 60 min at 4° C.; read-out: Inhibitory activity (IC50) against progesterone receptor binding. The procedure:
That is, uteri taken from hogs in 5 mM phosphate buffer were disrupted using Polytron homogenizer, and the resulting solution was centrifuged (100,000×g, 30 min) to separate the supernatant, thereby preparing a cytosol containing progesterone receptor. […] Then, 100 μl of a 0.5% activated carbon solution was added to the reaction solution, and the mixture was allowed to stand for 10 min and then centrifuged (2,000×g, 10 min). The radioactivity of the supernatant was measured with a liquid scintillation counter.
Separately, the radioactivity was measured in the same manner as described above, except that no test drug was added. Further, the radioactivity was measured in the same manner as described above, except that 10 μl of Medroxyprogesterone Acetate (MPA) (10 μg/ml) was added instead of the test drug. The radioactivity with no test drug added was defined as the amount of total binding of [^3 H]-progesterone to the cytosol, and the radioactivity with MPA added was defined as the amount of non-specific binding. The inhibition ratio was calculated from these measured values by the following equation to determine the binding inhibitory activity (IC50). [formula]
Consider `CC1=C2C[C@@]3(C)C(=C[C@@H](O)[C@H](OC(=O)c4cccs4)[C@@H]3C)C=C2OC1=O` [Example A45, (4aR,5R,6R,7R)-7-Hydroxy-6-(2-thiophencarbonyl)oxy-4a,5,6,7-tetrahydro-3,4a, 5-trimethylnaphtho[2,3-b]furan-2(4H)-one], for which the pIC50 was 7.54.
Same read-out and setting: to `CC1=C2C[C@@]3(C)C(=C[C@H](O)[C@H](OC(=O)c4ccccc4)[C@@H]3C)C=C2OC1=O` [Example A21, (4aR,5R,6R,7S)-6-Benzoyloxy-7-hydroxy-4a,5,6,7-tetrahydro-3,4a,5-trimethylnaphtho[2,3-b]furan-2(4H)-one] belongs 7.57; to `CCC(=O)O[C@H]1C=C2C=C3OC(=O)C(C)=C3C[C@]2(C)[C@@H](C)[C@H]1O` [Example A1, (4aR,5R,6R,7S)-6-Hydroxy-7-propionyloxy-4a,5,6,7-tetrahydro-3,4a,5-trimethylnaphtho[2,3-b]furan-2(4H)-one], 6.00; to `CC1=C2C[C@@]3(C)C(=C[C@H](O)[C@H](OC(=O)c4ccco4)[C@@H]3C)C=C2OC1=O` [Example A3, (4aR,5R,6R,7S)-6-(2-Furancarbonyl)oxy-7-hydroxy-4a,5,6,7-tetrahydro-3,4a,5-trimethylnaphtho[2,3-b]furan-2(4H)-one], 7.92.
Regarding `CCC(=O)O[C@H]1CC=C2C=C3OC(=O)C=C3C[C@]2(C)[C@H]1C` (relative stereo) [Example B28], the pIC50 is 7.18.
Regarding `CC1=C2C[C@@]3(C)C(=C[C@H](OCc4ccccc4)[C@H](O)[C@@H]3C)C=C2OC1=O` [Example A7, (4aR,5R,6R,7S)-7-Benzyloxy-6-hydroxy-4a,5,6,7-tetrahydro-3,4a,5-trimethylnaphtho[2,3-b]furan-2(4H)-one], the pIC50 was 5.55.
In the case of `CC1=C2C[C@@]3(C)C(=C[C@H](O)[C@H](OC(=O)c4ccc([N+](=O)[O-])cc4)[C@@H]3C)C=C2OC1=O` [Example A23, (4aR,5R,6R,7S)-7-Hydroxy-6-(4-nitrobenzoyl)oxy-4a,5,6,7-tetrahydro-3,4a,5-trimethylnaphtho[2,3-b]furan-2(4H)-one], the pIC50 was 7.74.
Still for that read-out and setting: to `CC1=C2C[C@@]3(C)C(=CC[C@H](OC(=O)c4ccccc4)[C@@H]3C)C=C2OC1=O` (relative stereo) [Example B7, (4aR*,5R*,6S*)-6-Benzoyloxy-4a,5,6,7-tetrahydro-3,4a,5-trimethylnaphtho[2,3-b]furan-2(4H)-one] belongs 7.27; to `CO[C@H]1C=C2C=C3OC(=O)C(C)=C3C[C@]2(C)[C@@H](C)[C@H]1OC(C)=O` [Example A30, (4aR,5R,6R,7S)-6-Acetoxy-7-methoxy-4a,5,6,7-tetrahydro-3,4a, 5-trimethylnaphtho[2,3-b]furan-2(4H)-one], 7.33; to `C[C@H]1[C@@H](OC(=O)c2ccco2)CC=C2C=C3OC(=O)C=C3C[C@@]21C` (relative stereo) [Example B30, (4aR*,5R*,6S*)-4a,5-Dimethyl-6-(2-furoyl)oxy-4a,5,6,7-tetrahydronaphtho[2,3-b]furan-2(4H)-one], 7.22.
Still for that read-out and setting: to `CC1=C2C[C@@]3(C)C(=C[C@H](O)[C@H](OC(=O)CCl)[C@@H]3C)C=C2OC1=O` [Example A12, (4aR,5R,6R,7S)-6-Chloroacetoxy-7-hydroxy-4a,5,6,7-tetrahydro-3,4a,5-trimethylnaphtho[2,3-b]furan-2(4H)-one] belongs 7.08; to `CC(=O)O[C@H]1CC=C2C=C3OC(=O)C=C3C[C@]2(C)[C@H]1C` (relative stereo) [Example B27, (4aR*,5R*,6S*)-6-Acetoxy-4a,5-dimethyl-4a,5,6,7-tetrahydronaphtho [2,3-b]furan-2(4H)-one], 7.41; to `CC(=O)O[C@H]1CC=C2C=C3OC(=O)C(C)=C3C[C@]2(C)[C@H]1C` (relative stereo) [Example B2, (4aR*,5R*,6S*)-6-Acetoxy-4a,5,6,7-tetrahydro-3,4a,5-trimethylnaphtho[2,3-b]furan-2(4H)-one], 7.26.
The same measure, in the same setting: to `CCCNC(=O)O[C@H]1[C@@H](O)C=C2C=C3OC(=O)C(C)=C3C[C@]2(C)[C@H]1C` [Example A6b, (4aR,5R,6R,7S)-7-Hydroxy-6-(n-propyl)carbamoyloxy-4a,5,6,7-tetrahydro-3,4a,5-trimethylnaphtho[2,3-b]furan-2(4H)-one] belongs 6.54; to `CC(=O)O[C@H]1CC=C2C=C3OC(=O)C(C)=C3C[C@]2(C)[C@H]1C` [B42 (Natural type)], 7.48.
As for `CC(=O)O[C@@H]1CC=C2C=C3OC(=O)C(C)=C3C[C@@]2(C)[C@@H]1C` [Example B42 (Nonnatural type)], the pIC50 was 6.10.
Same read-out and setting: to `CC1=C2C[C@@]3(C)C(=C[C@H](O)[C@H](OC(=O)C4CCCCC4)[C@@H]3C)C=C2OC1=O` [Example A19, (4aR,5R,6R,7S)-6-Cyclohexylcarbonyloxy-7-hydroxy-4a,5,6,7-tetrahydro-3,4a,5-trimethylnaphtho[2,3-b]furan-2(4H)-one] belongs 7.33.
Same read-out and setting: to `CCC(=O)O[C@H]1[C@H](OC)C=C2C=C3OC(=O)C(C)=C3C[C@]2(C)[C@H]1C` [Example A10, (4aR,5R,6R,7R)-7-Methoxy-6-propionyloxy-4a,5,6,7-tetrahydro-3,4a,5-trimethylnaphtho[2,3-b]furan-2(4H)-one] belongs 7.12; to `COCO[C@H]1C=C2C=C3OC(=O)C(C)=C3C[C@]2(C)[C@@H](C)[C@H]1OC(=O)c1ccccc1` [Example A8, (4aR,5R,6R,7S)-6-Benzoyloxy-7-methoxymethoxy-4a,5,6,7-tetrahydro-3,4a,5-trimethylnaphtho[2,3-b]furan-2(4H)-one], 7.01.
The same measure, in the same setting: to `CCCC(=O)O[C@H]1CC=C2C=C3OC(=O)C(C)=C3C[C@]2(C)[C@H]1C` (relative stereo) [Example B4, (4aR*,5R*,6S*)-6-Butyryloxy-4a,5,6,7-tetrahydro-3,4a,5-trimethylnaphtho[2,3-b]furan-2(4H)-one] belongs 7.28.
Take `CC1=C2C[C@@]3(C)C(=C[C@H](O)[C@H](OC(=O)C4CC4)[C@@H]3C)C=C2OC1=O` [Example A17, (4aR,5R,6R,7S)-6-Cyclopropylcarbonyloxy-7-hydroxy-4a,5,6,7-tetrahydro-3,4a,5-trimethylnaphtho[2,3-b]furan-2(4H)-one]: the pIC50 was 7.77.
Same read-out and setting: to `CCO[C@@H]1C=C2C=C3OC(=O)C(C)=C3C[C@]2(C)[C@@H](C)[C@H]1OC(=O)c1cccs1` [Example A41, (4aR,5R,6R,7R)-7-Ethoxy-6-(2-thiophencarbonyl)oxy-4a,5,6,7-tetrahydro-3,4a,5-trimethylnaphtho[2,3-b]furan-2(4H)-one] belongs 6.40; to `CC(=O)O[C@@H]1C=C2C=C3OC(=O)C(C)=C3C[C@]2(C)[C@@H](C)[C@H]1OC(=O)c1ccco1` [Example A44, (4aR,5R,6R,7R)-7-Acetoxy-6-(2-furancarbonyl)oxy-4a,5,6,7-tetrahydro-3,4a,5-trimethylnaphtho[2,3-b]furan-2(4H)-one], 6.56.

Tested on in another series: not listed separately
As to the kind of experiment: Solubility. As to conditions: organic solvents. It counts as physicochemical.
In the case of `CC(=O)O[C@H]1C=C2C=C3OC(=O)C(C)=C3C[C@]2(C)[C@@H](C)[C@H]1O` [PF1092B], the “Solubility (solvents in which soluble)” value is “soluble in chloroform, acetone, ethyl acetate, methanol and dimethyl sulioxide”.

Still in this series, the particulars now being: water and hexane.
For `CC(=O)O[C@H]1C=C2C=C3OC(=O)C(C)=C3C[C@]2(C)[C@@H](C)[C@H]1O` [PF1092B], the “Solubility (solvents in which insoluble)” value is “insoluble in water and hexane”.
